Laboratory results as given in PMC5884652, “New antimicrobial peptide kills drug-resistant pathogens without detectable resistance” (Oncotarget, 2018).
Read-outs that look alike come from different tables or passages of the source. Ends that are not written are not given here.

Experiments:
[1] = system: P. aeruginosa ATCC 15692; format: cell-based, Pseudomonas aeruginosa
Excerpt: (§1) The method for peptide synthesis has been described in detail previously. […] Bacillus subtilis KCTC 1998 (LB media), Salmonella typhimurium KCTC 1926 (NB media), and Proteus vulgaris KCTC 2433 (NB media) were obtained from the Korean Collection for Type Cultures (Jeollabuk-do, Korea). E. coli CCARM 1238 was received from the Culture Collection of Antibiotic Resistant Microbes at Seoul Women’s University, Korea. Drug-resistant P. aeruginosa 3543, 3904, 3547, and 4007 and S. aureus 3126, 0027, 5157, 1635, 4761, 5159, 3359, 2122, 1630, 1870, 3511, 5156, and 3518 were resistant strains isolated from patients with otitis media in a Chonnam National University’s hospital.
The antibacterial activities of AMPs (melittin, clavaspirin, and its analogs) and conventional antibiotic drugs (erythromycin, gentamicin, ampicillin, and piperacidin) were determined using microdilution assays. […] Thereafter, 2× serial dilutions of each peptide (0.25–128 μM) or antibiotic (0.25–256 μM) were added to sterile 96-well plates, and aliquots of cell suspension (5 × 10^5 colony forming units (cfu)/mL) were seeded into each well. The samples were then incubated at 37° C for 24 h. At the end of the incubation, the minimum inhibitory concentrations (MICs) of the peptides were determined using a VERSA Max microplate reader (Molecular Devices Co., Sunnyvale, CA, USA) at a wavelength of 600 nm. […] MIC values were calculated as the mean of 3 independent experiments conducted in triplicate.

[2] = system: HaCaT (human keratinocyte) cells; test: Cytotoxicity, MTT assay; format: cell-based; details: DMEM containing 10% FBS and 1% PS, 24 h, 37° C; for EC50: read-out: EC50 (effective concentration in HaCaT cells)
Description: To examine the cytotoxic effects of the peptides, HaCaT (human keratinocyte) cells were cultured in Dulbecco’s modified Eagle’s medium (DMEM) supplemented with antibiotics (100 U/ml penicillin and 100 μg/ml streptomycin) and 10% fetal calf serum at 37° C in a humidified chamber under a 5% CO2 atmosphere. Growth inhibition was evaluated using 3-(4, 5-dimethylthizol-2-yl)-2, 5-diphenyltetrazolium bromide (MTT) assays to measure cell viability. After cells were seeded into a 96-well plate at a density of 2 × 10^4/well and incubated for 24 h, twofold serial dilutions of each peptide in DMEM were added to the wells, and the cells were incubated for an additional 24 h at 37° C. Thereafter, 10 μl of MTT (5 mg/ml) was added to each well, and the plate was incubated for 4 h. The supernatants were then removed, and 50 μl of DMSO was added to each well to dissolve any remaining precipitate. Finally, the absorbance at 570 nm was measured using a microtiter reader.

[3] = system: S. aureus ATCC 29213; format: cell-based, Staphylococcus aureus
Excerpt: as §1
The antibacterial activities of AMPs (melittin, clavaspirin, and its analogs) and conventional antibiotic drugs (erythromycin, gentamicin, ampicillin, and piperacidin) were determined using microdilution assays. Bacterial cells were cultured at 37° C in appropriate culture media at pH 5.5 or pH 7.4 until collection during the mid-log phase and suspended in 10 mM sodium phosphate buffer (pH 5.5 or pH 7.4) supplemented with 10% culture medium. Thereafter, 2× serial dilutions of each peptide (0.25–128 μM) or antibiotic (0.25–256 μM) were added to sterile 96-well plates, and aliquots of cell suspension (5 × 10^5 colony forming units (cfu)/mL) were seeded into each well. The samples were then incubated at 37° C for 24 h. At the end of the incubation, the minimum inhibitory concentrations (MICs) of the peptides were determined using a VERSA Max microplate reader (Molecular Devices Co., Sunnyvale, CA, USA) at a wavelength of 600 nm. […] MIC values were calculated as the mean of 3 independent experiments conducted in triplicate.

[4] = system: S. aureus; test: SYTOX-Green uptake; format: cell-based; details: S. aureus 2 × 10^7 cfu/mL, 1 μM SYTOX-Green, 10 mM sodium phosphate buffer
Description: S. aureus CCARM 259237 cells were grown to the mid-log phase and suspended in 10 mM sodium phosphate buffer supplemented with 10% culture medium at pH 7.4 and 37° C, and then washed and suspended (2 × 10^7 cfu/mL) in 10 mM sodium phosphate buffer (pH 7.4) and incubated with 1 μM SYTOX-Green for 20 min in the dark. After the addition of peptides at the appropriate concentrations (1/2 MIC, MIC, 2× MIC, and/or 4× MIC), time-dependent increases in fluorescence, which is caused by the binding of the cationic dye to intracellular nucleic acids, was monitored using a Perkin-Elmer LS55 fluorometer (excitation wavelength, 485 nm; emission wavelength, 520 nm).

[5] = system: E. coli; test: SYTOX-Green uptake; format: cell-based; details: E. coli 2 × 10^7 cfu/mL, 1 μM SYTOX-Green, 10 mM sodium phosphate buffer, pH 5.5 and pH 7.4
[6] = system: hRBCs; format: cell-based, human; details: 400 μM peptide, PBS buffer containing 8% hRBCs, 1 h, 37° C, microscope
Description: (§2) www.oncotarget.com Oncotarget, Supplementary Materials
(§3) New antimicrobial peptide kills drug-resistant pathogens without […]
(§4) Supplementary Figure 1: The hemolytic activities of peptides were tested using hRBCs, and cytotoxicity was tested using a human keratinocyte line (HaCaT cells). The cells were treated with 400 μM peptide in PBS buffer containing 8% hRBCs (v/v). The samples were then incubated with mild agitation for 1 h at 37° C, and then spun down at 800 × g for 10 min. Changes in hRBC morphology were examined under a microscope. Cells were treated with 400 μM rhodamine-labeled peptides. HaCaT cells were seeded at 4 × 10^3 cells/well and then incubated for 24 h, treated with rhodamine-labeled peptide and incubated for an additional 24 h at 37° C in a humidified chamber under an atmosphere containing 5% CO2. The cells were examined under an inverted fluorescence phase contrast microscope. Scale bar, 100 μm.
(§5) (1 picture or pasted object on this page, not shown here)

[7] = system: HaCaT cells; format: cell-based, human; details: 400 μM rhodamine-labeled peptide, 24 h, 37° C, fluorescence microscope
Description: as §2, §3, §4, §5

[8] = pH 5.5 (I), 10 mM sodium phosphate buffer, 10% LB, 37° C, 24 h, mean of 3 experiments
[9] = pH 7.4 (II), 10 mM sodium phosphate buffer, 10% LB, 37° C, 24 h, mean of 3 experiments

| Substance | MIC, P. aeruginosa ([1]; ATCC 15692, 24 h, pH 5.5) | MIC, P. aeruginosa ([1]; ATCC 15692, 24 h, pH 7.4) | EC10 (effective concentration in HaCaT cells) [2] | EC50 [2] | MIC, S. aureus ([3]; ATCC 29213, 24 h, pH 5.5) | MIC, S. aureus ([3]; ATCC 29213, 24 h, pH 7.4) | MIC, P. aeruginosa [1, 8] | MIC, P. aeruginosa [1, 9] | Membrane disruption (SYTOX-Green fluorescence) [4] | Membrane disruption (SYTOX-Green fluorescence) [5] | MIC, S. aureus [3, 8] | MIC, S. aureus [3, 9] | Membrane damage of hRBCs [6] | Binding to the cell membrane of HaCaT cells [7] |
| --- | --- | --- | --- | --- | --- | --- | --- | --- | --- | --- | --- | --- | --- | --- |
| FKRFIGSVKHGIGHLVHHIGVAL-NH2 [CSP-3] | 32 µM | 32 µM | 84 | 188 µM | 8 µM | 8 µM | – | – | – | – | – | – | – | – |
| FLRFIGSVKHGKGHLVHHIGVAL-NH2 [CSP-4] | – | – | > 400 | > 400 µM | – | – | 32 µM | 32 µM | dose-dependent increase in fluorescence intensity | dose-dependent increase in fluorescence intensity | 8 µM | 8 µM | no detectable hemolytic or membrane-binding activity | no detectable hemolytic or membrane-binding activity |
